Here are results for three molecules from patent publication US20240389594A1 (priority 2020, published 2024).

What all share (type): cell-based
The test system of one experiment is Alternaria solani. In words: Microtest, early blight caused by Alternaria solani (ALTESO), Example 1. The settings on record: single compound, 7 days.
Experiment [1] deals with Septoria tritici. The following applies: 7 days.
The next experiment has as its system Pyricularia oryzae. The following applies: PYRIOR, single compound, 7 days.
The next experiment concerns Botrytis cinerea.
The subject of experiment [2] is Colletotrichum orbiculare. In words: Microtiterplate test, anthracnose caused by Colletotrichum orbiculare (COLLLA), Example 1. The following applies: single compound, 7 days.
Experiment [3] deals with Septoria tritici. In words: Microtest, leaf blotch on wheat caused by Septoria tritici (SEPTTR), Example 2. The following applies: single compound, 7 days.

Like-named read-outs stand apart in the source and are kept apart here.

Consider `CCC(=O)Oc1c(OC)ccnc1C(=O)N[C@@H](C)C(=O)O[C@@H](C)[C@@H](C)c1ccccc1C` [Compound II-1, [(1 S,2S)-1-methyl-2-(o-tolyl)propyl] (2S)-2-[(4-methoxy-3-propanoyloxy-pyridine-2-carbonyl)amino]propanoate], for which the Observed efficacy turned out to be 42% in the experiment on Alternaria solani (1 ppm); 15% with Septoria tritici [1]; 10% with Pyricularia oryzae (1 ppm); 13% in the experiment with Botrytis cinerea; 0% in experiment [2] (0.25 ppm); 0% in experiment [2] (1 ppm).

In turn, `CON(Cc1ccc(-c2noc(C(F)(F)F)n2)cc1)C(=O)C1CC1` [Compound II-2, N-methoxy-N-[[4-[5-(trifluoromethyl)-1,2,4-oxadiazol-3-yl]phenyl]methyl]cyclopropanecarboxamide] returned an Observed efficacy with Septoria tritici [3] (0.25 ppm) of 9%.

As to `Cc1cccc(-n2nnn(C)c2=O)c1COc1ccn(-c2ccc(Cl)cc2)n1` [Methyltetraprol, metyltetraprole], the Observed efficacy with Alternaria solani (0.004 ppm) is on record as 12%; in the experiment with Alternaria solani (0.016 ppm), 31%; in the experiment with Pyricularia oryzae (0.004 ppm), 3%; in the experiment with Pyricularia oryzae (0.016 ppm) it was 11%; in the experiment with Botrytis cinerea (7 days), 52%; in experiment [2] (0.063 ppm), 0%. The same molecule returned an Observed efficacy in the experiment on Septoria tritici [3] (0.004 ppm) of 0%.
